From patent publication US20240197712A1, “TGF-BETA INHIBITION FOR IMMUNODEFICIENCY VIRUS REACTIVATION FROM LATENCY, ENHANCEMENT OF IMMUNODEFICIENCY VIRUS-SPECIFIC RESPONSES AND IMMUNODEFICIENCY VIRUS CURE” (Northwestern University, priority 2022, published 2024) come the findings set out here.

Structures are written as SMILES.

The test system of one data set is SIVmac239M2. The data set is described as follows: Cell-associated vDNA in PBMC, colorectal biopsies and lymph nodes. Format: in vivo, rhesus macaques. On the procedure:
Blood was collected in EDTA tubes and plasma was separated by density gradient centrifugation and used for the determination of plasma VL by SIVgag qRT-PCR at NIRC or at Leidos (Quantitative Molecular Diagnostics Core, AIDS and Cancer Virus Program Frederick National Laboratory). Tissue VL from snap frozen PBMC pellets, colorectal biopsies and LN FNA were performed as described in (77). SIV-TILDA was performed on freshly stored PBMC before cycle 1 and at the end of cycle 4 of galunisertib by Accelevir, Baltimore, MD.

Data set [1] can be described thus: Clinical pathology (chemistry, hematology) and adverse events. The data set is classed as in vivo, rhesus macaques. As for the experimental part: 1 mL of blood was collected in EDTA tubes and tested for a standard hematology panel (complete blood count—CBC) using a BECKMAN COULTER DxH600 hematology analyzer. An additional 1 mL of blood was collected into a SST tube, centrifuged to isolate serum, and analyzed for a comprehensive serum chemistry panel using a Siemens's Dimension Clinical Chemistry Analyzer.

The subject of data set [2] is SIVmac239 gag, pol and env peptides. The data set is described as follows: SIV-specific responses, FluoroSpot of PBMC. Format: in vivo, rhesus macaques. On the procedure:
Cytokines in plasma (at 1:2 dilution) were measured using the NHP Cytokine 24-Plex kit by Meso Scale Diagnostics (MSD) according to manufacturer instructions. Frozen PBMC collected at week 6 post-infection (pre-ART), right before the first galunisertib administration (BC1), at the end of cycle 1 (AC1) and at the end of cycle 3 (AC3) were thawed in AIM V medium (ThermoFisher) with benzonase (Sigma) and plated on a FluoroSpot (CTL) plate pre-activated with 70% Ethanol and IFN-γ, TNF-α and IL-2 capture solution. Gag, pol, and env 15-mer peptides (NIH AIDS Reagents program) were prepared at two times the final concentration of 2.5 μg/ml with co-stimulatory reagents anti-CD28 10 μg/ml and anti-CD49d 10 μg/ml and added to the cells in CTL-Test™ Medium. Parallel positive […] control of PMA (20 ng/ml) and ionomycin (200 ng/mL) or mock DMSO solution was also plated with the stimulatory reagents. PBMCs were added at 300,000 cells per well. After 24 hrs, the plate was washed, and incubated with detection and tertiary solutions and shipped to CTL for scanning and QC.

A further data set deals with pSMAD2/3. The experiment in a line: PhosphoSMAD2/3 over total SMAD2/3 in PBMC (ELISA). The data set is classed as in vivo, rhesus macaques. To be noted: 2.5 or 5 mg/kg twice daily, 9 days. On the procedure: Eight naïve macaques (FIG. 9) were used to collect plasma and PBMC for PK/PD studies. 4 macaques received galunisertib (2.5 mg/kg, n=2 or 5 mg/kg, n=2) once and blood was collected at 1 hr, 3 hr and 6 hrs, 24 hrs and 48 hrs. 4 macaques received galunisertib (2.5 mg/kg, n=2 or 5 mg/kg, n=2) twice daily for 9 days and samples were collected 1 hr, 3 hr and 8 hrs after administration on day 1 and on day 9 right before and 1 hr and 3 and 6 hrs after the last administration. Plasma concentrations of galunisertib were measured by IMSERC (Integrated Molecular Structure Education and Research Center) utilizing liquid chromatography mass spectrometry (Shimadzu Kyoto, Japan ultra-high performance liquid chromatography—UHPLC—system and SCIEX Framingham, MA Qtrap 6500+ triple quadrupole mass spectrometer). […] All samples and standards were processed in duplicate with the average area under the curve (AUC) being used for quantitation reporting. […] The resulting limit of quantitation (LOQ) was 1.0 ng/ml.
For PD studies, the levels of phosphorylated SMAD2/3 were measured using the PathScan PhospoSMAD2/3 ELISA kit (Cell Signaling Technology, CST) over the levels of Total SMAD2/3 in cell lysates Total SMAD ELISA Kit (Cell Signaling Technology, CST) normalized on protein content.

A further data set deals with U1 cells. The data set is described as follows: PMA-induced HIV reactivation in U1 cells, intracellular p24 staining. The data set is classed as cell-based. On the procedure: ACH2 cells and U1 cells were obtained through the NIH HIV Reagent Program, Division of AIDS, NIAID, NIH (contributed by Dr. Thomas Folks). Cells ([…]) were cultured in triplicates in RPMI with 10% FBS and Pen/Strep in presence of TGF-β1 (10 ng/ml R&D systems), TGF-β1 and galunisertib (1 μM MedChemExpress), galunisertib alone or mock treated. In the HIV latency reactivation conditions, PMA (Phorbol 12-myristate 13-acetate, SigmaAldrich) was added at 100 ng/ml together with galunisertib or TGF-β1. After 18 hrs, cells were stained intracellularly for p24 using the KC57 antibody (NIH HIV Reagent Program) as previously described (74).

Turning to `Cc1cccc(-c2nn3c(c2-c2ccnc4ccc(C(N)=O)cc24)CCC3)n1` [galunisertib, Galunisertib], in the data set on SIVmac239M2 (8 macaques, four 2-week cycles), the “cell-associated SIV DNA in lymph nodes, gut and PBMC” value was “Half to 1 Log decrease”. Also, the “CA-vDNA decrease in gut, median” value with SIVmac239M2 (BC1 (week 35 pi) vs AC4 (week 49 pi)) came out at 0.77 folds. The “CA-vDNA decrease in PBMC, range” value with SIVmac239M2 (BC1 vs AC3) is recorded as 0.28-0.88 folds. Moreover, in the data set with SIVmac239M2 (BC1 vs AC4), the “CA-vDNA decrease in gut, range” value is listed as 0.33-0.94 folds. For the same molecule, the “CA-vDNA decrease in PBMC, median” value in the data set with SIVmac239M2 (BC1 vs end of cycle 3 (AC3)) is reported as 0.58 folds. For the same molecule, the “cell-associated viral DNA in lymph nodes and colorectal biopsies” value in the data set with SIVmac239M2 (Example 5, end of cycle 4 vs before Gal) is reported as “decreased by over a Log”. Moreover, in the data set with SIVmac239M2 (right axillary LN, BC1 vs AC4), the “CA-vDNA decrease in LN, median” value came to 0.93 folds and the “CA-vDNA decrease in LN, range” value is listed as 0.33-0.98 folds. The “clinical variables (chemistry and hematology)” value in data set [1] (before, during and after therapy) is reported as “No significant changes”. Besides, the adverse events entry in data set [1] (macaque studies) is listed as “no adverse events”. Also, the IL-2 release entry in data set [2] (end of 3rd cycle) is given as “remained unchanged”. In data set [2] (end of the 3rd cycle vs BC1), the “IFN-γ secretion, SIV-specific and non-specific” value is given as “significant increase”. Besides, in data set [2] (in response to Gag and non-specifically), the TNF-α release result was “increased”. For the same molecule, the “reduction in pSMAD2/3 over total SMAD in PBMC” value with pSMAD2/3 is given as about 25%. Further, the “frequency of p24-gag+ cells in unstimulated cultures” value in the data set with U1 cells (U1 cells, no PMA, TGF-β1 10 ng/ml or galunisertib 1 μM alone) is “slightly increase”. Moreover, in the data set on U1 cells (U1 cells, TGF-β1 10 ng/ml + galunisertib 1 μM, with or without PMA), the “frequency of p24-gag+ cells in the presence of exogenous TGF-β1” value is on record as “restores the frequency of p24-gag+ cells”. In addition, in the data set on U1 cells (galunisertib 1 μM alone, PMA 100 ng/ml), the “frequency of p24-gag+ cells in PMA-stimulated U1 cells” value is given as “no impact”.
